The results in this text go back to patent US6054114A, “Organometallic ligands for the localization and quantification of amyloid in vivo and in vitro” (priority 1997, dated 2000).

Like-named read-outs stand apart in the source and are kept apart here.

In one data set the target is T1, β1-40 amyloid fibrils (Homo sapiens, UniProt P05067).
T1 construct: Aggregated β1-40 peptides (Bachem, Torrance, Calif); purchased Bachem, Torrance, Calif
Description: Competitive displacement of labeled complexes 3 or 6 from β1-40 fibrils. It is filed as binding. Conditions: 25° C., pH 7.4, mean (±S.D.). On the procedure: Dissociation constants, IC50 and inhibition constants were determined. Aggregated β1-40 peptides (Bachem, Torrance, Calif.; peptide concentrations were determined by amino acid analysis) were prepared by stirring supersaturated solutions of peptide (100 μM) in the standard buffer (10 mM NaH2 PO4, pH 7.4) at room temperature for at least 72 h and remained stirring while aliquots were taken. […] The solution was briefly vortexed and allowed to equilibrate at room temperature for 2 h. The solution was centrifuged for 1 min at 14,000 rpm (16,000 g) and the amount of the labeled ligand bound ([B]) to fibrils was obtained by measuring the radioactivity of the pellets or calculated using the equation [B] =[T] - [F] where [F] is the concentration of the labeled ligand in the supernatant (i.e., amount unbound or free) and [T] is the total amount of the labeled ligand added. A Scatchard plot was used to obtain [B]max (apparent maximum amount of the labeled ligand bound to fibrils) and Kd. (Freifelder, D., Physical Biochemistry: Applications to Biochemistry and Molecular Biology, 2nd ed.; W. H. Freeman & Co., N. Y. Chapter 10, p. 654 (1982)). The [B]max was based on total protein concentration. […] The IC50 value was used to calculate the inhibition constant Ki. (Cheng et al., Biochem. Pharmacol. 22:3099-3108 (1973)).
The relative affinities (Ki 's) of the free bipyridyl ligands were determined by displacement of complexes 3 or 6 (see Table 1). […] The stoichiometry of saturation, as estimated by Scatchard analysis of the binding curves, differed slightly, with 2.7 moles of 3 and 1.6 moles of 6 bound per mole of β1-40.

The nature of the next data set: Peptide solubility. Conditions: 10 mm nah2po4 buffer, pH 7.4. It is filed as physicochemical.
[1] abbreviates: [Tc(CNtBu)4 (bpcg)]^+ (6) as labeled ligand, read-out: Inhibition constant (Ki) for β1-40 fibrils.
[2] abbreviates: [Tc(CNtBu)4 (bpcr)]^+ (3) as labeled ligand, read-out: Inhibition constant (Ki) for β1-40 fibrils.

T1 sequence (P05067 672-711 limits assumed): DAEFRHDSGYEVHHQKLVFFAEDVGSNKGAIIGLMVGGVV

Regarding `Nc1c(/N=N/c2ccc(-c3ccc(/N=N/c4cc(S(=O)(=O)O)c5ccccc5c4N)cc3)cc2)cc(S(=O)(=O)O)c2ccccc12` [Congo Red (1), Congo Red, reference compound], the Ki (in general, a dissociation constant, usually derived from enzyme kinetics or from competition with a known ligand) was 560 nM on β1-40 amyloid fibrils (Inhibition constant (Ki) for β1-40 fibrils, [Tc(CNtBu)4 (bpcg)]^+ (6) as labeled ligand) and 460 nM on β1-40 amyloid fibrils (Inhibition constant (Ki) for β1-40 fibrils, [Tc(CNtBu)4 (bpcr)]^+ (3) as labeled ligand).

On to `Nc1c(N=Nc2ccc(-c3ccc(N=Nc4cc(S(=O)(=O)O)c5ccccc5c4N)cn3)nc2)cc(S(=O)(=O)O)c2ccccc12` [compound 2, Bipyridyl-Congo Red], for which the Ki was 480 nM on β1-40 amyloid fibrils (setting [1]) and 510 nM on β1-40 amyloid fibrils (setting [2]).

Regarding `O=C(O)c1cc(N=Nc2ccc(-c3ccc(N=Nc4ccc(O)c(C(=O)O)c4)cn3)nc2)ccc1O` [compound 5, bipyridal-Chrysamine G], the figures for the Ki at β1-40 amyloid fibrils (setting [1]) and on β1-40 amyloid fibrils (setting [2]) were 420 nM and 760 nM, respectively.

In the case of “β1-40: β1-40 amyloid peptide (Bachem), C-terminally truncated relative of Aβ1-42”, in the data set “Peptide solubility”, the solubility entry is reported as “ca. 1 μM”.
